Results on four compounds are retold here after BindingDB's records for doi:10.1074/jbc.M607293200 (The Scripps Research Institute, 2007).

The term Ki denotes the dissociation constant of the complex between target and ligand, obtained from inhibition or displacement.

The target of the assay is T1, Phosphoribosylglycinamide formyltransferase (Escherichia coli (strain K12), UniProt P08179).
T1 sequence (P08179 whole entry): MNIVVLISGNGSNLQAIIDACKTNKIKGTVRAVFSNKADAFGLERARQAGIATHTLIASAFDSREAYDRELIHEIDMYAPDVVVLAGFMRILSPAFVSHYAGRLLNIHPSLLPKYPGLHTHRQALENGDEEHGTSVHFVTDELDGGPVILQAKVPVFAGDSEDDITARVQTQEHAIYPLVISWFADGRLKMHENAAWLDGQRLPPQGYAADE
The assay is described as follows: GAR Tfase Activity Assay. The following applies: pH 7.5; 26 °C.
Turning to `O=C1NS(=O)(=O)Nc2c1ncn2[C@@H]1O[C@H](COP(=O)(O)O)[C@@H](O)[C@H]1O` [{[(2R,3S,4R,5R)-3,4-dihydroxy-5-(2,2,4-trioxo-1H,3H,4H,7H-2,1,3,5,7-imidazo[4,5-c][1,2,6]thiadiazin-7-yl)oxolan-2-yl]methoxy}phosphonic acid], the inhibition constant Ki is above 100 µM. Take `O=C1NS(=O)(=O)Nc2c1ncn2[C@@H]1O[C@H](CO)[C@@H](O)[C@H]1O` [7-[(2R,3R,4S,5R)-3,4-dihydroxy-5-(hydroxymethyl)oxolan-2-yl]-1H,3H,4H,7H-2,1,3,5,7-imidazo[4,5-c][1,2,6]thiadiazine-2,2,4-trione]: the Ki was above 100 µM.

For `O=C1NS(=O)(=O)Nc2nc[nH]c21` [1H,3H,4H,7H-2,1,3,5,7-imidazo[4,5-c][1,2,6]thiadiazine-2,2,4-trione], the Ki is above 100 µM. For the compound `Nc1nc2c(c(=O)[nH]1)C[C@@H](CCc1ccc(C(=O)N[C@@H](CCC(=O)O)C(=O)O)cc1)CN2` [5,10-dideazatetrahydrofolic acid], the Ki worked out at 0.1 µM.
